Results from patent publication US5491072A, “N-alkylacridan carboxyl derivatives useful for chemiluminescent detection” (Lumigen, Inc., priority 1993, dated 1996).

Test system: human transferrin
Test: Chemiluminescent detection of proteins by Western blot
Source text: To determine the sensitivity of reagents of the present invention for detection of proteins by Western blotting, a model system of transferrin was used to provide polypeptide bands in known quantities.
Rabbit anti-goat IgG-peroxidase conjugate and rabbit anti-goat IgG-peroxidase were obtained from Cappel Products (Durham, N.C.). Human transferrin and fractionated goat anti-human transferrin serum were purchased from Sigma Chemical Co. (St. Louis, Mo.)). The IgG sample was centrifuged at 10,000 g for two minutes and the supernatant was used in the immunological reaction. Immobilon™-P transfer membrane was obtained from Millipore Corp. (Bedford, Mass.). Kodak (Rochester, N.Y.) X-OMAT AR and OMC films were used in the assay procedure.
SDS-PAGE was performed utilizing the buffer system described by Laemmli (U. K. Laemmli, Nature (London), 227, 680 (1970)). The stacking gel was 4.38% acrylamide: 0.12% bisacrylamide. The separating gel was 6.81% acrylamide: 0.19% bisacrylamide. Following electrophoresis the gel was equilibrated for 7-8 minutes with the transfer buffer which contained 20 mM Tris, 153 mMglycine and 20% (v/v) methanol. The gel, sandwiched between a sheet of transfer membrane and a sheet of chromatography paper 3MM (Whatman), was placed in the transfer unit (Bio-Rad Laboratories, Richmond, Calif.). […]

In the case of `CN1c2ccccc2C(C(=O)Oc2ccc(O)cc2)c2ccccc21` [Compound 1b, 4'-Hydroxyphenyl 10-methylacridan-9-carboxylate], the “duration of detectable chemiluminescence on membrane (X-ray film)” value (HRP-conjugate on membrane, Western blot) is reported as “at least three hours” and the “transferrin standards clearly visible down to” value (detection reagent with 5 × 10^-5 M 1b and NaBO3, 7 sec exposure X-OMAT AR film or 30 second exposure OMC film) is reported as 20 pg/slot.
